# Measurements: patent US20230002327A1, “SMALL-MOLECULE REGULATOR OF TLR8” (TSINGHUA UNIVERSITY, priority 2019, published 2023)
# Columns and labels:
# [1] = test system: TLR1/2, TLR2/6, TLR3, TLR4 and TLR5 signaling pathways; assay: ELISA of TNF-α in TLR1/2, TLR2/6, TLR3, TLR4 or TLR5 signaling pathways in human PBMC; assay type: cell-based; settings: human peripheral blood mononuclear cells (FIG. 4)
# [2] = test system: peripheral blood mononuclear cells of patients suffering from rheumatoid arthritis; assay: TNF-α in PBMC of rheumatoid arthritis patients; assay type: cell-based, human; settings: PBMC derived from rheumatoid arthritis patients (FIG. 9)
# Protocol: Approximately 8 mL of blood was collected from untreated rheumatoid arthritis patients.
# Peripheral blood mononuclear cells (PBMCs) were isolated from the whole blood derived from 6 rheumatoid arthritis patients using the lymphocyte separation medium, and the cells were seeded in a 96-well round-bottom plate at a density of 1×10^6 cells/mL immediately after the isolation (cultured in RPMI 1640 (0.25 mL/well)).
# Afterwards, cells were treated with 0, 10, 20, 40 and 80 μM Compound 24, Compound 10 was used as a negative control, and cells were placed in a cell incubator (37° C., 5% CO2) for incubation.
# After 24 hours, the resultant was centrifuged at 4,000 rpm/minute for 10 minutes, and then the supernatant was collected, frozen to −80° C. and used for the determination of TNF-α. Quantification was conducted using a human TNF ELISA Kit.
# [3] = molecular target: T1, TLR7 (Homo sapiens, UniProt Q9NYK1); assay: Inhibition of R848-induced signaling in HEK-Blue hTLR7 cell line (Quanti-Blue); assay type: cell-based
# T1 construct: host or cells: HEK-Blue hTLR7 (HEK293-derived SEAP reporter cells)
# T1 sequence (Q9NYK1 27-1049): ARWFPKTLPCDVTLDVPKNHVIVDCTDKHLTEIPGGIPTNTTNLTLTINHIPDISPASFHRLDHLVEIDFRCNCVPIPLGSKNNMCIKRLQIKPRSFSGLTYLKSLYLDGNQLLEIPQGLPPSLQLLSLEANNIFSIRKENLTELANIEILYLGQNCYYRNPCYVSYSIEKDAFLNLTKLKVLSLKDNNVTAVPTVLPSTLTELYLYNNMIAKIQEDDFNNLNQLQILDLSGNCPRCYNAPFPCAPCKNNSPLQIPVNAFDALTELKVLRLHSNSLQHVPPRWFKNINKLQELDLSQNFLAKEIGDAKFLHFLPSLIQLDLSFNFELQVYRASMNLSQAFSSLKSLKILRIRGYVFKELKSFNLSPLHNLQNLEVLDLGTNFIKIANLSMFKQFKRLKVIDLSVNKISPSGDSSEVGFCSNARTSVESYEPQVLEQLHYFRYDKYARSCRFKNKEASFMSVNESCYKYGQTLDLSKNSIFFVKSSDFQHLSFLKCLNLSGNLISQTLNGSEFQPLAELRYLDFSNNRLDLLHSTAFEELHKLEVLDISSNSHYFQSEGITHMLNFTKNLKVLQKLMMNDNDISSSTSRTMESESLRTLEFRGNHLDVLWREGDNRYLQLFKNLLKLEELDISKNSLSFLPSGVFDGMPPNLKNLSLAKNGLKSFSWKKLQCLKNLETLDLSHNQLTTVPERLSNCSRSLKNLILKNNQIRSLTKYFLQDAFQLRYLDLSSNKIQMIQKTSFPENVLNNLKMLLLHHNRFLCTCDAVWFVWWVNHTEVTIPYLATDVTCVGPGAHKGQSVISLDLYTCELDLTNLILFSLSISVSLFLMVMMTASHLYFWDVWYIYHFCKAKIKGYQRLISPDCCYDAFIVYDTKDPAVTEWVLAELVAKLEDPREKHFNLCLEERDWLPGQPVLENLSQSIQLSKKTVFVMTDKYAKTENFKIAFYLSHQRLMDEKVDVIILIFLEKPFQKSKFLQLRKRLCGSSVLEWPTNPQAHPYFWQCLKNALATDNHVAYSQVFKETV
# In short: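 HEK-Blue hTLR8 or hTLR7 cells in serum-free DMEM were co-treated for 24 h at 37 °C with compound plus 1 μg/mL R848, or 5 μg/mL ssRNA40/LyoVec or ORN06/LyoVec. SEAP in the supernatant was read with Quanti-Blue at OD620. % inhibition was taken relative to ligand-only and untreated cells, and IC50 was fitted.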
# [4] = test system: hTLR1/2, TLR2/6, TLR3, TLR4, TLR5, TLR7, TLR9; assay: Specificity test in HEK-Blue TLR cell lines: other TLRs; assay type: cell-based, human; settings: at a concentration of 100 μM (FIG. 11)
# Protocol: The selectivity of compounds for receptors in TLR family was tested in HEK-Blue cells overexpressing various TLRX (x=1 to 9) respectively. The steps of this test method were the same as those mentioned above in “Activity Test of Compounds”, except that the ligands corresponding to different TLRs were used to activate the downstream signaling in the corresponding cells. Among these, ploy (I:C) (20 μg/mL), LPS (40 ng/mL), Pam3CSK4 (100 ng/mL), Pam2CSK4 (100 ng/mL), flagellin (200 ng/mL), R848 (1 μg/mL) and ODN2006 (0.5 μM) were used to selectively activate HEK-Blue hTLR3-, hTLR4-, hTLR1/2-, hTLR2/6-, hTLR5-, hTLR7- and hTLR9-overexpressing cells, respectively.
TLR7 (normalized inhibitory effect on R848-induced signaling) [3],SMILES,"inhibitory effect on TNF-α in TLR1/2, TLR2/6, TLR3, TLR4 and TLR5 signaling pathways [1]",inhibitory effect on inflammatory factor TNF-α [2],influence on other TLR signaling pathways [4]
–,"CSc1nnc(CCCO)n1-c1cc(C)c(C)c(C)c1 [Compound 24, 3-(5-(methylthio)-4-(3,4,5-trimethylphenyl)-4H-1,2,4-triazole-3-yl)propan-1-ol]",no inhibitory effect,significant inhibitory effect,–
1.0 ± 0.2,"CCOCc1nc(I)c(-c2ccccc2)n1CC(C)(C)O [Compound 53, 1-[2-(ethoxymethyl)-4-iodo-5-phenyl-1H-imidazole-1-yl]-2-methylpropan-2-ol]",–,–,no influence
